Legend:
ENaC = biological target: T1, ENaC (Canis lupus familiaris, UniProt A0A8I3MKE6+A0A8I3Q679+Q95165); assay: Inhibition of short-circuit current (ISC) and reversibility, bronchial epithelial monolayers in Ussing chamber, canine cells; type: cell-based; settings: canine bronchial epithelial cells (CBE); mean ± SD (n)
T1 sequence (A0A8I3Q679 1-649): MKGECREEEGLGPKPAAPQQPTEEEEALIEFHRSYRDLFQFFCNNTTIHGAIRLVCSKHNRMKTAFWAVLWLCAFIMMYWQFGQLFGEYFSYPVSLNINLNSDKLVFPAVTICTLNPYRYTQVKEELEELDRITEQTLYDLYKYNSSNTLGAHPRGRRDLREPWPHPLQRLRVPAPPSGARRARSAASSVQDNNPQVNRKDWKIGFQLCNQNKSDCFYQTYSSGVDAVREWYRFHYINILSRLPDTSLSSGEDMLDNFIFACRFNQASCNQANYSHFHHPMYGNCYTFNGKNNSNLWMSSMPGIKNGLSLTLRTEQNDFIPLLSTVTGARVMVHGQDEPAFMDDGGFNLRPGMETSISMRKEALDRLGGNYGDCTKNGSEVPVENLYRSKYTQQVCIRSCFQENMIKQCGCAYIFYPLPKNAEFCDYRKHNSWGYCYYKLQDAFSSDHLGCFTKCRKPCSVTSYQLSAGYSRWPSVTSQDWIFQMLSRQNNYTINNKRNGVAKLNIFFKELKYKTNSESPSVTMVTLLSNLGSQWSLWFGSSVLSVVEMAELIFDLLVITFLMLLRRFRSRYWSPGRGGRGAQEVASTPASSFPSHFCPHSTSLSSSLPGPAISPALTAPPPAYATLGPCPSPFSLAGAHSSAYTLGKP
T1 sequence (Q95165 1-641): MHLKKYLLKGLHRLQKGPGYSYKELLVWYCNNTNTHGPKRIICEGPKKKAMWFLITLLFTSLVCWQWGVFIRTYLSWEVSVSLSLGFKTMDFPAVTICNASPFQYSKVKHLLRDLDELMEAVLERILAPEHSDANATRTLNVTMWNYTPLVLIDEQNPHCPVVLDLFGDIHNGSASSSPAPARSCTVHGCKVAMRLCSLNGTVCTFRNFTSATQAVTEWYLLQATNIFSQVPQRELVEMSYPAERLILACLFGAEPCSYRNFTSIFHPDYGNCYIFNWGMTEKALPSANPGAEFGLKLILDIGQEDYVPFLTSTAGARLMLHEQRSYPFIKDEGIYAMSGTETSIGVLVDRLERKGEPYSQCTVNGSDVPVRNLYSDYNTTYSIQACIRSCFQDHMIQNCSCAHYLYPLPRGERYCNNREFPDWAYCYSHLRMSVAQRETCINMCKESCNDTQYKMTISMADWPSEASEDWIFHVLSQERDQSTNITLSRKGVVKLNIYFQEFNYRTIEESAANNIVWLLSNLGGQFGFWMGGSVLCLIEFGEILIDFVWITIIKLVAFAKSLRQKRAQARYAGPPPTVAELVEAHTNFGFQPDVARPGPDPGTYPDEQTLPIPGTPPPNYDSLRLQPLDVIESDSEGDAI
T1 sequence (A0A8I3MKE6 1-646): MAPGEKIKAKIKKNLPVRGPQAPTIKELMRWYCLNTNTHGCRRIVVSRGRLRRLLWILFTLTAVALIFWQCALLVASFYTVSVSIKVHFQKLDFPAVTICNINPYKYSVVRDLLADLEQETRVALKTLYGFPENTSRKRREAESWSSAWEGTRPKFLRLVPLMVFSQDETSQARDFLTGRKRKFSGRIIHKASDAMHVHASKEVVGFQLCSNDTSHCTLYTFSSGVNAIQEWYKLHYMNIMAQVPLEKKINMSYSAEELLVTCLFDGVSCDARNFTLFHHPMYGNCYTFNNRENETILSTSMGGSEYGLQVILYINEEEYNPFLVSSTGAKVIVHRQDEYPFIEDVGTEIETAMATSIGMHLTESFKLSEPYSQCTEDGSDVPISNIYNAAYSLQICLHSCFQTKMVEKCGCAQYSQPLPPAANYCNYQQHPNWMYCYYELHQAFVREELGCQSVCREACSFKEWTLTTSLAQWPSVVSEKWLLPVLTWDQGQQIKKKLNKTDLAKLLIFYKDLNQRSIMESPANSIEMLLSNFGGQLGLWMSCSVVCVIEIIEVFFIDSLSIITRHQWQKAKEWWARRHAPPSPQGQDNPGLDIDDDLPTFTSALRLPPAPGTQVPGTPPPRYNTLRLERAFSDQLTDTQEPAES
Description: One assay used to assess mechanism of action and/or potency of the compounds of the present invention involves the determination of luminal drug inhibition of airway epithelial sodium currents measured under short circuit current (ISC) using airway epithelial monolayers mounted in Ussing chambers. Cells are obtained from freshly excised human, canine, sheep or rodent airways.
Inhibition of transcellular sodium movement through ENaC was measured using polarized bronchial epithelial cell monolayers mounted in a modified Ussing chamber. Primary cultures of canine or human bronchial epithelial cells grown using an air-liquid interface were tested under voltage clamp conditions. The short-circuit current (ISC) was measured as an index of transepithelial sodium transport to assess potency.
Recovery of short circuit current (ISC) from maximal block was used as an indirect measurement of drug off-rate.

Muc5B = Muc5B (Homo sapiens, UniProt Q9HC84); settings: in vitro; cited from earlier work

Row | Structure (SMILES) | IC50 (ENaC) [nM] | concentration required to fully reduce Muc5B (Muc5B) [mM]
1 | N=C(NCCCCc1ccc(OCCN(CCCc2ccccc2)C[C@H](O)[C@@H](O)[C@H](O)[C@H](O)CO)cc1)NC(=O)c1nc(Cl)c(N)nc1N [Compound 12, 3,5-diamino-6-chloro-N—(N-(4-(4-(2-(((2S,3R,4R,5R)-2,3,4,5,6-pentahydroxyhexyl)(3-phenylpropyl)amino)ethoxy)phenyl)butyl)carbamimidoyl)pyrazine-2-carboxamide] | 6.6 ± 7 | 
2 | N=C(NCCCCc1ccc(OCCN(CCCc2ccc3ccccc3c2)C[C@H](O)[C@@H](O)[C@H](O)[C@H](O)CO)cc1)NC(=O)c1nc(Cl)c(N)nc1N [Compound 17, 3,5-diamino-6-chloro-N—(N-(4-(4-(2-((3-(naphthalen-2-yl)propyl)((2S,3R,4R,5R)-2,3,4,5,6-pentahydroxyhexyl)amino)ethoxy)phenyl)butyl)carbamimidoyl)pyrazine-2-carboxamide] | 5.6 ± 9 | 
3 | N=C(NCCCCc1ccc(OCCN(CCCc2cccc3ccccc23)C[C@H](O)[C@@H](O)[C@H](O)[C@H](O)CO)cc1)NC(=O)c1nc(Cl)c(N)nc1N [Compound 27, 3,5-diamino-6-chloro-N—(N-(4-(4-(2-((3-(naphthalen-1-yl)propyl)((2S,3R,4R,5R)-2,3,4,5,6-pentahydroxyhexyl)amino)ethoxy)phenyl)butyl)carbamimidoyl)pyrazine-2-carboxamide] | 5.9 ± 4.8 | 
4 | N=C(NCCCCc1ccc(CCCN(CCCc2ccccc2)C[C@H](O)[C@@H](O)[C@H](O)[C@H](O)CO)cc1)NC(=O)c1nc(Cl)c(N)nc1N [Compound 40, 3,5-diamino-6-chloro-N—(N-(4-(4-(3-(((2S,3R,4R,5R)-2,3,4,5,6-pentahydroxyhexyl)(3-phenylpropyl)amino)propyl)phenyl)butyl)carbamimidoyl)pyrazine-2-carboxamide] | 11.8 ± 8.2 | 
5 | CC(=O)N[C@@H](CS)C(=O)O [NAC, N-acetyl cysteine] |  | 200

From patent US10233158B2, “Arylalkyl- and aryloxyalkyl-substituted epithelial sodium channel blocking compounds” (Parion Sciences, Inc., priority 2013, dated 2019)
